Like-named read-outs stand apart in the source and are kept apart here. Marks after values point to notes of the source that are not given here.
Assays:
[1] = tested on: Colo 320/MDR-LRP human colonic adenocarcinoma cell line; experiment: Cytotoxicity (MTT) on resistant Colo 320 cells; type: cell-based; conditions: for IC50: Homo sapiens, COLO 320, 24 h, MTT, read-out: Colo 320 (IC50 µM) Mean; for SI MRC-5/Colo 320: ratio IC50 non-tumour cells / IC50 cancer cells
From the text: (§1) Three cell lines have been used in this study: the doxorubicin-sensitive Colo 205 (CCL-222, ATCC, Manassas, VA, USA) human colonic adenocarcinoma cell line; the multidrug resistant Colo 320/MDR-LRP expressing P-gp (MDR1)-LRP (CCL-220.1, ATCC) human colonic adenocarcinoma cell line; and the MRC-5 human embryonal lung fibroblast cell line (CCL-171, ATCC). The colon adenocarcinoma cell lines were purchased from LGC Promochem (Teddington, UK), and the MRC-5 cell line was purchased from Sigma-Aldrich (Merck KGaA, Darmstadt, Germany). Their culture conditions are as follows: Colo 205 (CCL-222, ATCC) and Colo 320/MDR-LRP expressing P-gp (MDR1)-LRP (CCL-220.1, ATCC) human colon adenocarcinoma cell lines were cultured in RPMI 1640 medium, supplemented with 10% FBS, 2 mM L-glutamine, 1 mM Na-pyruvate, and […]. The cell lines were incubated at 37 °C, 5% CO2, and 95% air atmosphere. The semi-adherent human colon cancer cells were detached with a Trypsin-Versene (EDTA) solution for 5 min at 37 °C. MRC-5 human embryonal lung fibroblast cells were cultured in EMEM containing 4.5 g/L of glucose and supplemented with a non-essential amino acid mixture, a selection of vitamins, and 10% FBS. The cell lines were incubated at 37 °C, 5% CO2, and 95% air atmosphere.
(§2) The effects of increasing concentrations of the compounds on cell growth were tested in 96-well flat-bottomed microtiter plates. Moreover, 10^4 of human colonic adenocarcinoma cells in 100 μL of the medium (RPMI-1640) were added to each well, except for the medium control wells. The adherent human embryonic lung fibroblast cell line was seeded in the EMEM medium for 4 h before the assay. The two-fold serial dilutions of the compounds were made in a separate plate (0.19–100 μM), and then transferred to the plates containing the adherent corresponding cell line. Culture plates were incubated at 37 °C for 24 h. At the end of the incubation period, 20 μL of MTT (thiazolyl blue tetrazolium bromide) solution (from a 5 mg/mL stock solution) were added to each well. After incubation at 37 °C for 4 h, 100 μL of sodium dodecyl sulfate (SDS) solution (10% SDS in 0.01 M HCl) was added to each well, and the plates were further incubated at 37 °C overnight. Cell growth was determined by measuring the optical density (OD) at 540 nm (ref. 630 nm) with a Multiscan EX ELISA reader (Thermo Labsystems, Cheshire, WA, USA). Inhibition of cell growth was expressed as IC50 values, defined as the inhibitory dose that reduces the growth of the cells exposed to the tested compounds by 50%. IC50 values and the SD of triplicate experiments were calculated by using GraphPad Prism software version 5.00 for Windows, with a non-linear regression curve fit (GraphPad Software, San Diego, CA, USA; www.graphpad.com, accessed on 12 July 2021). Doxorubicin (from a 2 mg/mL stock solution, Teva Pharmaceuticals) was used as a positive control.
(§3) The selectivity indexes (SI) were calculated as the ratio of the IC50 value in the non-tumour cells and the IC50 in the cancer cell lines. The compound’s activity towards cancer cells is considered as strongly selective if the selectivity index (SI) value is higher than 6, moderately selective if 3 < SI < 6, slightly selective if 1 < SI < 3, and non-selective if SI is lower than 1 [16].

[2] = Cytotoxicity (MTT) on normal MRC-5 fibroblasts; type: cell-based; conditions: human
From the text: as §1, §2

[3] = tested on: Colo 205 human colonic adenocarcinoma cell line; experiment: Cytotoxicity (MTT) on sensitive Colo 205 cells; type: cell-based; conditions: for IC50: Homo sapiens, COLO 205, 24 h, MTT, read-out: Colo 205 (IC50 µM) Mean; for SI MRC-5/Colo 205: ratio IC50 non-tumour cells / IC50 cancer cells
From the text: as §1, §2, §3

[4] = tested on: MDR Colo 320 adenocarcinoma cells; experiment: Apoptosis induction (Annexin V-FITC / propidium iodide); type: cell-based, human; conditions: 20 µM
Description: The assay was carried out using an Annexin V-FITC Apoptosis Detection Kit Cat. No. PF 032 from Calbiochem (EMD Biosciences. Inc. La Jolla. CA), according to the manufacturer's instructions. […] The cell suspension was distributed into 1 mL aliquots (1 × 10^6 cells) into a 24-well microplate and incubated overnight at 37 °C, with 5% CO2. On the following day, the medium was removed and a fresh medium was added to the cells. The cells were incubated in the presence of Se-compounds for 3 h at 37 °C. […] After a 3 h induction period, the culture medium was removed, the cells were washed with PBS, and a fresh medium was added to the cells. The 24-well plates were incubated overnight at 37 °C, with 5% CO2. After the incubation, the supernatant was collected in a microfuge tube and 200 μL of 0.25 trypsin (Trypsin-Versene) was added to the wells until the cells detached from the surfaces of the wells. The cells were centrifuged at 2000× g for 2 min at room temperature, the supernatant was removed, and the cells were re-suspended in fresh serum-free medium. After this procedure, apoptosis assay was carried out according to the rapid protocol of the kit using Annexin V-FITC and propidium iodide staining. […] The data were analysed by FlowJo^TM software (BD Biosciences, San Jose, NJ, USA).

HaCaT cell line = experiment: Toxicity on HaCaT cells (IC10 used as dose); type: cell-based; conditions: Homo sapiens, concentration inhibiting 10% of the population, highest non-toxic concentration, read-out: Dose IC10
Description: The activity of selenoesters was tested on several cancer cell lines, including HepG2 (hepatocellular carcinoma, CCL-23TM, ATCC); HeLa (cervical adenocarcinoma, CCL-2TM, ATCC); B16 (skin melanoma, CCL-6322TM, ATCC); and a non-cancerous cell line, HDF (human dermal fibroblasts, Sigma-Aldrich). HepG2, HeLa, B16, and HDF cell lines were cultivated in EMEM medium supplemented with 10% FBS, 2 mM L-glutamine, and 1% penicillin-streptomycin mixture. The HaCaT cell line was cultivated in DMEM medium supplemented with 10% FBS and 1% penicillin-streptomycin mixture. All of the cells were cultivated in a CO2 incubator (5% CO2, 37 °C). Twice per week, the cell lines were passaged according to a standardized protocol with a trypsin-EDTA solution. […]
Wound healing activity of selenoesters was evaluated as the ability of the cells to migrate and close the gap created on the monolayer of human keratinocytes (HaCaT cell line). The tested substances were applied in the highest possible non-toxic concentration (IC10, concentration inhibiting 10% of the population). In general, ketone-selenoesters were more toxic (except K4 and K1) than cyano-selenoesters (except N4); therefore, they were applied at lower doses (0.17–0.30 µM) when compared to cyanoselenoesters (0.36–0.64 µM). Compounds K1, K4, and N4 were applied at a concentration of 0.30, 0.46, and 0.20 µM, respectively. As could be seen in Table 8, all ketone-selenoesters stimulated wound healing more effectively in comparison to both untreated control (p < 0.0000005) and allantoin (p < 0.00005). […] Only samples N1, N2, N4, and N7 closed effectively the damaged wound in 24 h, with the gap closure around 70%.

[5] = tested on: HeLa (cervical adenocarcinoma); experiment: Cytotoxicity on HeLa cells; type: cell-based, human; conditions: ratio IC50 non-tumour cells / IC50 cancer cells
[6] = tested on: HepG2 (hepatocellular carcinoma); experiment: Cytotoxicity on HepG2 cells; type: cell-based; conditions: Homo sapiens
Description: (§4) The activity of selenoesters was tested on several cancer cell lines, including HepG2 (hepatocellular carcinoma, CCL-23TM, ATCC); HeLa (cervical adenocarcinoma, CCL-2TM, ATCC); B16 (skin melanoma, CCL-6322TM, ATCC); and a non-cancerous cell line, HDF (human dermal fibroblasts, Sigma-Aldrich). HepG2, HeLa, B16, and HDF cell lines were cultivated in EMEM medium supplemented with 10% FBS, 2 mM L-glutamine, and 1% penicillin-streptomycin mixture. The HaCaT cell line was cultivated in DMEM medium supplemented with 10% FBS and 1% penicillin-streptomycin mixture. All of the cells were cultivated in a CO2 incubator (5% CO2, 37 °C). Twice per week, the cell lines were passaged according to a standardized protocol with a trypsin-EDTA solution.
as §3

[7] = tested on: resistant Colo 320 colon adenocarcinoma cells expressing the ABCB1 transporter; experiment: Checkerboard combination assay with doxorubicin; type: cell-based, human; conditions: starting conc. 10 µM
Description: A checkerboard microplate method was applied to study the effect of drug interactions between the selenocompounds and the chemotherapeutic drug doxorubicin on resistant Colo 320 colon adenocarcinoma cells expressing the ABCB1 transporter. Results were expressed in terms of the combination index (CI) values at 50% growth inhibition (ED50), which were determined by using CompuSyn software to plot 4 or 5 data points for each ratio.
To perform the experiment, the dilutions of doxorubicin were made in a horizontal direction in 100 µL, and the dilutions of the Se-compounds were made vertically in the microtiter plate in a volume of 50 µL. The cells were re-suspended in the culture medium and distributed into each well in 50 µL portions containing 6000 cells. The plates were incubated for 72 h at 37 °C in a CO2 incubator. The cell growth rate was determined after MTT staining. At the end of the incubation period, 20 μL of MTT solution was added to each well. After incubation at 37 °C for 4 h, 100 μL of SDS was added to each well and the plates were further incubated at 37 °C overnight. The optical density (OD) was measured at 540/630 nm with the Multiscan EX ELISA reader.

[8] = tested on: HepG2 (hepatocellular carcinoma); experiment: Cytotoxicity on HepG2 cells; type: cell-based, human; conditions: ratio IC50 non-tumour cells / IC50 cancer cells
[9] = tested on: HeLa (cervical adenocarcinoma); experiment: Cytotoxicity on HeLa cells; type: cell-based; conditions: Homo sapiens
Description: as §4, §3

B16 (skin melanoma) = experiment: Cytotoxicity on B16 cells; type: cell-based, murine; conditions: Mus musculus
Description: as §4, §3

[10] = target: ABCB1 (P-glycoprotein) in Colo 320 colonic adenocarcinoma cells (Homo sapiens, UniProt P08183); experiment: ABCB1 inhibition, rhodamine 123 accumulation by flow cytometry; conditions: 0.2 µM
ABCB1 (P-glycoprotein) in Colo 320 colonic adenocarcinoma cells, sequence (P08183 whole entry): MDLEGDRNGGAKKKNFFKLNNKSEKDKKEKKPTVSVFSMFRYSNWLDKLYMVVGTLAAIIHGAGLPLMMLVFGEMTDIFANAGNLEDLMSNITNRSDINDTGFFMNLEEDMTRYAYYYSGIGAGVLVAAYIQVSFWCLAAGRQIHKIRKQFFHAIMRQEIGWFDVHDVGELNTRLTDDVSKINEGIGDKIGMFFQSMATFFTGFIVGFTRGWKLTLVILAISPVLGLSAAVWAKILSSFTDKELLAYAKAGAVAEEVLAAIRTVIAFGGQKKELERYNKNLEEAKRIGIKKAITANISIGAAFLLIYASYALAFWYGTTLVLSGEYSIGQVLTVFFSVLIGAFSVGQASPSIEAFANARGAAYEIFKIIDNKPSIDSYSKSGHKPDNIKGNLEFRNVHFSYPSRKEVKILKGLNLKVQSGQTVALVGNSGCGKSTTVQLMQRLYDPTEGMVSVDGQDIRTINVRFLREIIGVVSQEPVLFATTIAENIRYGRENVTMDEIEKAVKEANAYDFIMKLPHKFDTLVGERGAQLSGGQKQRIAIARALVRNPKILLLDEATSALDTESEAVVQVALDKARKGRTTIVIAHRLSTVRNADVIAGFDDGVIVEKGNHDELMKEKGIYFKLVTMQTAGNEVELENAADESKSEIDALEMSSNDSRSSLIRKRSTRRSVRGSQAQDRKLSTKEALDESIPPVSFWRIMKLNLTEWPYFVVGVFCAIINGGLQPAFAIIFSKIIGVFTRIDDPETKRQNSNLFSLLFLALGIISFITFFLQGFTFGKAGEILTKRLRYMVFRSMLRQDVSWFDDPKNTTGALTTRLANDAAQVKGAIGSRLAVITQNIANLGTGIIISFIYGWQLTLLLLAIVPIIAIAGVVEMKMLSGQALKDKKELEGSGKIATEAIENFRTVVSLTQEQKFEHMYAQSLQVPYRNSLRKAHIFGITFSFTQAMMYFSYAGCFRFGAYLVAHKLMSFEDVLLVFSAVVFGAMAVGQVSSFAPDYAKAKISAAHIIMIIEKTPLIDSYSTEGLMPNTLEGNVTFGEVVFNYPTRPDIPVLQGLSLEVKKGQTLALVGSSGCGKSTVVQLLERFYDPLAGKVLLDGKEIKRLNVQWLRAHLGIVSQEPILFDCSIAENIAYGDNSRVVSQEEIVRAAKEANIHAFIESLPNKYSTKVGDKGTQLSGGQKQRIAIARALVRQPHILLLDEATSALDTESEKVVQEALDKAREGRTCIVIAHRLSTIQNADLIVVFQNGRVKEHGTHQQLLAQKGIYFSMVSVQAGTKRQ
Description: The inhibition of the ABCB1 multidrug efflux pump ABCB1 by the tested compounds was evaluated using flow cytometry, measuring the retention of rhodamine 123 by ABCB1 (P-glycoprotein) in Colo 320 colonic adenocarcinoma cells. Briefly, the cell number of colonic adenocarcinoma cells were adjusted to 2 × 10^6 cells/mL, re-suspended in serum-free RPMI-1640 medium in the case of colonic adenocarcinoma cells, and distributed in 0.5 mL aliquots into Eppendorf centrifuge tubes. The tested compounds were added at different concentrations (0.2 and 2 µM; from 1 and 10 mM stock solutions, respectively), and the samples were incubated for 10 min at room temperature. Tariquidar was applied as the positive control (0.2 µM final concentration), and DMSO was used as the solvent control (at 2 v/v%). Next, 10 µL (5.2 µM final concentration) of the fluorochrome rhodamine 123 (Sigma, St. Louis, MO, USA) was added to the samples and the cells were incubated for 20 min at 37 °C. After the incubation period, the cells were washed twice and re-suspended in 0.5 mL PBS for analysis. The fluorescence of the gated cell population was measured with a Partec CyFlow® flow cytometer (Partec, Münster, Germany). The percentage of the mean fluorescence intensity was calculated for the treated MDR cells as compared with the untreated cells. The results were obtained from a representative flow cytometry experiment in which at least 20,000 individual cells of the overall population were evaluated for the rhodamine 123 retained inside the cells. The fluorescence activity ratio (FAR) was calculated based on the following equation, which relates the measured fluorescence values: FAR=Colo320treated / Colo320control/Colo205treated / Colo205control
The parameters evaluated from flow cytometry experiments were: Forward Scatter Count (FSC, provides information about cell size); Side Scatter Count (SSC, proportional to cell granularity or internal complexity); FL-1 (Mean fluorescence of the cells), and Fluorescence Activity Ratio (FAR), which was calculated by the equation given above.

COc1cccc2c1C(=O)c1c(O)c3c(c(O)c1C2=O)C[C@@](O)(C(=O)CO)C[C@@H]3O[C@H]1C[C@H](N)[C@H](O)[C@H](C)O1 [Dox., doxorubicin, reference compound]
IC50 [1]: 7.61 µM
SI MRC-5/Colo 320 [1]: 0.36
IC50 at 24 h ([2]; MRC-5 embryonal lung fibroblast cells, 24 h, MTT, read-out: MRC-5 (IC50 µM) Mean): 2.73 µM
IC50 [3]: 3.46 µM
SI MRC-5/Colo 205 [3]: 0.79

c1ccc2c(c1)Nc1c(ccc3ccccc13)S2 [M627, 12H-benzo(α)phenothiazine, reference compound]
Cell Death (%) Treated Sample-Untreated Sample ([4]; positive control): 0.00%
Early Apoptosis (%) Treated Sample-Untreated Sample ([4]; positive control): 13.3%
Late Apoptosis (%) Treated Sample-Untreated Sample ([4]; positive control): 36.1%
Total Apoptotic Events (Early + Late, %) ([4]; positive control): 49.4%
Apoptosis Quotient (%) ([4]; reference): 100%

N#CC[Se]C(=O)c1cccc(C(F)(F)F)c1 [N5, Se-(Cyanomethyl) 3-(Trifluoromethyl)benzoselenoate]
IC10 (HaCaT cell line): 600 nM
IC50 [1]: 5.22 µM
SI MRC-5/Colo 320 [1]: >6 *
SI MRC-5/HeLa [5]: >6 *
IC50 at 24 h [2]: > 100 µM
IC50 [6]: 9.8 µM
IC50 [3]: 2.1 µM
SI MRC-5/Colo 205 [3]: >6 *
Type of Interaction ([7]; ratio 1.2:1): Strong antagonism
Type of Interaction ([7]; ratio 2.4:1): Strong antagonism
Type of Interaction ([7]; ratio 4.8:1): Slight antagonism
Type of Interaction ([7]; ratio 9.6:1): Additive effect
Type of Interaction ([7]; ratio 19.2:1): Slight antagonism
Type of Interaction ([7]; ratio 38.4:1): Moderate antagonism
SI MRC-5/HepG2 [8]: >6 *
IC50 [9]: 2.5 µM
IC50 (B16 (skin melanoma)): 1.4 µM

COc1cc2c(cc1OC)CN(CCc1ccc(NC(=O)c3cc(OC)c(OC)cc3NC(=O)c3cnc4ccccc4c3)cc1)CC2 [Tariquidar, reference compound]
FSC (Forward Scatter Count) [10]: 1957
SSC (Side Scatter Count) [10]: 1074
FAR (fluorescence activity ratio) ([10]; rhodamine 123, FAR above 2 considered effective): 28.04
